Laboratory results published in US10036034B2, “Sequences involved in plant yield and methods of using” (NUtech Ventures, priority 2014, dated 2018).
Read-outs that look alike come from different tables or passages of the source. Marks after values point to notes of the source that are not given here.

Columns and labels:
P76 and TL seedlings = assay: Effect of GA biosynthesis inhibitor Paclobutrazol (PAC) on lateral root density of wheat seedlings; format: in vivo; details: for Lateral Root Density / Number of Lateral Roots / Primary Root Length: 6 d old seedlings
Description: (§1) For the early seedling stage root screening we used the cigar roll method (Zhu et al., 2006, TAG, 113:1-10). Similar sized seeds were germinated in a petri dish with moist paper towel for three days in the dark at 22-2S° C. Three seedlings per genotype were placed between two sheets of germination paper and rolled vertically. Three batches of 10 cigar rolls, totaling 30 plants per genotype were soaked in tap water and placed vertically in 1 L beaker filled with SO mL of water. Seedlings were grown in a controlled environment using a Percival Intellus Control System incubator (Model: I36VLC8) set at 25/27° C., 11.5/12.5 h day/night, 50/70% relative humidity and illumination of 80 μmols m^−2 sec^−1 during the duration of the experiments (Percival Scientific, Inc., Iowa). Water was added to each beaker twice daily to maintain the volume of 50 ml. All measurements were carried until 6 days after germination. Measurements after Day 6 can potentially be affected by limiting seed resources that drive seedling growth. For gene expression experiments, seedlings were harvested at 2, 4 and 6 days after germination. Root tissue samples were collected and snap frozen. It was hypothesized that the differences in biomass and yield between the Agropyron 7DL lines and the corresponding parental genotypes could be due to increased investment in root production, thus increasing acquisition of water and nutrients from the soil. We used a parent line, Pavon76 (P76), the 1-96-1 translocation line (TL), and a negative control (NC) for the translocation event for these experiments (FIG. 1). The total number of lateral roots (>1 mm) on the primary root axis were counted, and lateral root density was calculated by dividing the number of lateral roots on the primary root axis by the primary root length. Statistical significance was determined using a one-way ANOVA using Tukeys method. Transcriptomic comparison of the TL line and P76 indicated the differential regulation of several gibberellic acid associated genes (GSE42214; Table 8). Therefore, we tested the role of GA in lateral root regulation by treating TL and P76 seedlings with 104 GA3 in WW and LW conditions. […] Given the positive impact of exogenous GA on lateral roots, we measured the endogenous GA level in 6 d seedling roots. GA1 decreased in P76 in LW compared to WW (FIG. 13a). […] Higher GA levels in TL than P76 in LW is likely associated with its ability to maintain lateral root growth in LW. Auxin, which promotes lateral root growth, was not deficient in P76 relative to TL in LW, further supporting a GA-dependent mechanism for maintaining lateral root growth in TL (FIG. 21) (Orman-Ligeza et al., 2013, Trends Plant Sci., 18:459-67; Lavenus et al, 2013, Trends Plant Sci., 18:450-8).

LRD7Ta = assay: qRT-PCR of LRD7Ta expression in GA pretreated P76 roots; format: in vivo, wheat
Description: FIG. 13 is data showing that gibberellins (GA) regulate lateral root formation in wheat. Panel (a) is a graph showing GA1 levels in P76 and TL roots in WW and LW conditions (mean±sd, n=30). “a” represents differences between WW and LW for a genotype and “b” represents significant genotypic differences under LW (p<0.05). Panel (b) is a graph showing expression of Agropyron allele of LRD7 (LRD7Ag) in the TL line in WW and LW conditions, with and without GA3 treatment. Transcript abundance was measured relative to WW, non-GA3 treated sample (mean±sd, n=3). “a” represents significant differences between WW and LW for roots with GA3 and no GA3 treatment, “b” represents a significant difference in response to GA treatment (p<0.05). […] “a” represents significant differences between WW and LW for a genotype and “b” represents significant genotypic differences in LW conditions (p<0.05). […] The “a” represents significance between WW and LW and “b” indicates significance between CBO37 and RNAi or OE events or between P76 and TL under LW (p<0.05).
(§2) We used SuperScript VILO to synthesize cDNA for semi- and real-time quantitative PCR (qPCR) (Invitrogen Corp., Carlsbad, Calif.). […] Crossing point value (Cp or Ct), which was the point at which the fluorescence crosses the threshold, and melting curve analyses were obtained using the LightCycler Roche 480 Software v1.5. […]

TL and P76 seedlings = assay: Effect of Gibberellin A3 (GA3) on lateral root density of wheat seedlings in WW and LW conditions; format: in vivo; details: for Lateral Root (PR) / Lateral Root Density / Primary Root Length: mean ± s.d., n = 30
Description: as §1

LRD7Ag = assay: qRT-PCR of LRD7Ag root transcript in GA pretreated TL seedlings; format: in vivo, wheat; details: GA pretreated TL seedlings in LW
Description: FIG. 13 is data showing that gibberellins (GA) regulate lateral root formation in wheat. Panel (a) is a graph showing GA1 levels in P76 and TL roots in WW and LW conditions (mean±sd, n=30). “a” represents differences between WW and LW for a genotype and “b” represents significant genotypic differences under LW (p<0.05). Panel (b) is a graph showing expression of Agropyron allele of LRD7 (LRD7Ag) in the TL line in WW and LW conditions, with and without GA3 treatment. Transcript abundance was measured relative to WW, non-GA3 treated sample (mean±sd, n=3). “a” represents significant differences between WW and LW for roots with GA3 and no GA3 treatment, “b” represents a significant difference in response to GA treatment (p<0.05). […] Expression values were obtained relative to WW, non-GA3 treated sample as control (mean±sd, n=3). “a” represents significant differences between WW and LW for a genotype and “b” represents significant genotypic differences in LW conditions (p<0.05). […]
as §2

SMILES: CC(C)(C)[C@@H](O)[C@@H](Cc1ccc(Cl)cc1)n1cncn1 (racemic) [PAC, Paclobutrazol]
- Lateral Root Density (P76 and TL seedlings; P76, LW (+PAC)): 0.22 ± 0.1^b cm−1
- Number of Lateral Roots (P76 and TL seedlings; P76, LW (+PAC)): 5 ± 2^b
- Primary Root Length (P76 and TL seedlings; P76, LW (+PAC)): 24.2 ± 2.9 cm
- Lateral Root Density (P76 and TL seedlings; P76, WW (+PAC)): 0.45 ± 0.1^b cm−1
- Number of Lateral Roots (P76 and TL seedlings; P76, WW (+PAC)): 11 ± 2^b
- Primary Root Length (P76 and TL seedlings; P76, WW (+PAC)): 25.3 ± 3.0 cm
- Lateral Root Density (P76 and TL seedlings; TL, LW (+PAC)): 0.41 ± 0.1^b cm−1
- Number of Lateral Roots (P76 and TL seedlings; TL, LW (+PAC)): 10 ± 1^b
- Primary Root Length (P76 and TL seedlings; TL, LW (+PAC)): 23.9 ± 2.6 cm
- Lateral Root Density (P76 and TL seedlings; TL, WW (+PAC)): 0.49 ± 0.1^b cm−1
- Number of Lateral Roots (P76 and TL seedlings; TL, WW (+PAC)): 11 ± 2^b
- Primary Root Length (P76 and TL seedlings; TL, WW (+PAC)): 22.7 ± 2.4 cm
- Effect on lateral root formation (P76 and TL seedlings; both P76 and TL): specifically suppressed lateral root formation

SMILES: C=C1C[C@]23C[C@@]1(O)CC[C@H]2[C@@]12C=C[C@H](O)[C@@](C)(C(=O)O1)[C@H]2[C@@H]3C(=O)O [GA3, Gibberellin A3]
- LRD7Ta expression in roots compared to LW (no GA) roots (LRD7Ta): down-regulated
- LRD7Ta expression in roots compared to LW (no GA) roots (LRD7Ta; listed as GA): decreased LRD7Ta expression
- Effect of GA treatment on lateral root number and density (TL and P76 seedlings; P76, LW): restored lateral root number and density to WW levels
- Lateral Root (PR) (TL and P76 seedlings; P76, LW (+GA3)): 23 ± 3^b
- Lateral Root Density (TL and P76 seedlings; P76, LW (+GA3)): 0.96 ± 0.1^b cm^−1
- Primary Root Length (TL and P76 seedlings; P76, LW (+GA3)): 23.9 ± 2.2^b cm
- Lateral Root (PR) (TL and P76 seedlings; P76, WW (+GA3)): 24 ± 4
- Lateral Root Density (TL and P76 seedlings; P76, WW (+GA3)): 0.96 ± 0.1 cm⁻¹
- Primary Root Length (TL and P76 seedlings; P76, WW (+GA3)): 25.5 ± 2.8 cm
- Effect of GA treatment on roots (TL and P76 seedlings; P76 and TL, WW conditions): had no effect on roots of either genotype
- Effect of GA treatment on lateral root number and density (TL and P76 seedlings; TL, LW): increased the TL lateral root number and density under LW to above the untreated values
- Lateral Root (PR) (TL and P76 seedlings; TL, LW (+GA3)): 38 ± 4^b
- Lateral Root Density (TL and P76 seedlings; TL, LW (+GA3)): 1.44 ± 0.1^b cm^−1
- Primary Root Length (TL and P76 seedlings; TL, LW (+GA3)): 26.4 ± 2.4 cm
- Lateral Root (PR) (TL and P76 seedlings; TL, WW (+GA3)): 24 ± 5
- Lateral Root Density (TL and P76 seedlings; TL, WW (+GA3)): 0.89 ± 0.2 cm⁻¹
- Repression of root transcript abundance of LRD7Ag relative to untreated WW control (LRD7Ag): 5 fold
